Reference: BindingDB's records for doi:10.1016/j.ejmech.2020.112858 (University of Pisa, 2020)

What was measured:
[1] = Non-competitive antagonist activity at human CB2R expressed in CHO cell membranes assessed as N-cycloheptyl-1,2-dihydro-1-(4-fluorobenzyl)-6-methyl-2-oxo-5-phenyl-pyridine-3-carboxamide EC50 at 1000 nM preincubated with compound for 30 mins followed by GTPgammaS addition and measured after 90 mins by [35S]GTPgammaS assay (Rvb = 19.4 nM)
[2] = Competitive antagonist activity at human CB2R expressed in CHO cell membranes assessed as rightward shift of N-cycloheptyl-1,2-dihydro-5-bromo-1-(4-fluoro benzyl)-6-methyl-2-oxo-pyridine-3-carboxamide-induced GTPgammaS binding by measuring N-cycloheptyl-1,2-dihydro-5-bromo-1-(4-fluoro benzyl)-6-methyl-2-oxo-pyridine-3-carboxamide EC50 at 300
[3] = Competitive antagonist activity at human CB2R expressed in CHO cell membranes assessed as rightward shift of N-cycloheptyl-1,2-dihydro-5-bromo-1-(4-fluoro benzyl)-6-methyl-2-oxo-pyridine-3-carboxamide-induced GTPgammaS binding by measuring N-cycloheptyl-1,2-dihydro-5-bromo-1-(4-fluoro benzyl)-6-methyl-2-oxo-pyridine-3-carboxamide EC50 at 100
[4] = Non-competitive antagonist activity at human CB2R expressed in CHO cell membranes assessed as N-cycloheptyl-1,2-dihydro-1-(4-fluorobenzyl)-6-methyl-2-oxo-5-phenyl-pyridine-3-carboxamide EC50 at 300 nM preincubated with compound for 30 mins followed by GTPgammaS addition and measured after 90 mins by [35S]GTPgammaS assay (Rvb = 19.4 nM)
[5] = Non-competitive antagonist activity at human CB2R expressed in CHO cell membranes assessed as N-cycloheptyl-1,2-dihydro-1-(4-fluorobenzyl)-6-methyl-2-oxo-5-phenyl-pyridine-3-carboxamide EC50 at 100 nM preincubated with compound for 30 mins followed by GTPgammaS addition and measured after 90 mins by [35S]GTPgammaS assay (Rvb = 19.4 nM)
[6] = Competitive antagonist activity at human CB2R expressed in CHO cell membranes assessed as rightward shift of N-cycloheptyl-1,2-dihydro-5-bromo-1-(4-fluoro benzyl)-6-methyl-2-oxo-pyridine-3-carboxamide-induced GTPgammaS binding by measuring N-cycloheptyl-1,2-dihydro-5-bromo-1-(4-fluoro benzyl)-6-methyl-2-oxo-pyridine-3-carboxamide EC50 at 1000

COc1ccc(-c2cc(C(=O)NC3CCCCCC3)c(=O)n(Cc3ccc(F)cc3)c2C)cc1
EC50 [1]: 103 nM | EC50 [2]: 192 nM | EC50 [3]: 81 nM | EC50 [4]: 62 nM | EC50 [5]: 102 nM | EC50 [6]: 711 nM
